Our source for the IC50 values is ChEMBL document CHEMBL5727102, “Compounds and methods for inhibiting Cif virulence factor” (2019).

The experiment in a line: Biochemical Characterization of Cif Inhibitors: The first step in characterizing the two compounds identified by high throughput screening was to verify that the inhibition was reproducible using fresh preparations. Chemical libraries are often stored for extended periods of time, which can lead to breakdown products contributing to the assay outcome. While the inhibition observed with a fresh ….

What is called IC50 is the point on the concentration scale where inhibition reaches its midpoint. Low values mean higher potency, high ones lower potency.

In turn, `NC(Cc1cc(I)c(Oc2cc(I)c(O)c(I)c2)c(I)c1)C(=O)O` (stereo unspecified) [THYROXINE] yielded an IC50 above 100 µM.
